Test results: patent US3954780A, “Propionic acid derivatives” (Innothera, priority 1970, dated 1976)
In brackets after ≈: the same amount, converted by molar mass. Where a name gives a salt, the structure may show the parent alone.

Assays:
isolated rat duodenum = test: Spasmolytic activity of papaverinic type, barium chloride contracture; details: Tyrode 38°; for EC50: read-out: Spasmolytic activity Papaverinic type DE 50 (converted)
Description: a. To show activity of the papaverinic type, the contracturant used is barium chloride acting on the isolated rat duodenum.
The average activity of the substances studied has been effected by determining graphically their DE 30 and DE 50 these being expressed in μg for 20 ml of bath.

[1] = tested on: isolated ileum of the guinea-pig; test: Spasmolytic activity of atropinic type, acetylcholine chloride contracture; details: Tyrode 33°; for EC50: Cavia porcellus, read-out: Spasmolytic activity Atropinic type DE 50 (converted)
Description: b. To show activity of atropinic type the contracturant used is acetylcholine chloride acting on the isolated ileum of the guinea-pig. […]

| Compound | Spasmolytic activity Papaverinic type DE 30 (isolated rat duodenum) | EC50 (isolated rat duodenum) [µg/mL] | EC50 [1] [µg/mL] | Spasmolytic activity Atropinic type DE 30 [1] |
| --- | --- | --- | --- | --- |
| O=C(OCCN1CCCCC1)C(Cc1cccs1)Cc1csc2ccccc12 (centres unmarked) [Compound 38] | 6.0 μg for 20 ml of bath | 0.8 (≈ 1.93 µM) | 10 (≈ 24.2 µM) | 95 μg/20 ml of bath |
| O=C(OCCCN1CCCC1)C(Cc1ccccc1)Cc1csc2ccccc12 (centres unmarked) [Compound 31] | 16.0 μg for 20 ml of bath | 1.4 (≈ 3.43 µM) | 3.25 (≈ 7.97 µM) | 40 μg/20 ml of bath |
| O=C(OCCCN1CCCCCC1)C(Cc1csc2ccccc12)CC1CCCO1 (centres unmarked) [Compound 56] | 10.0 μg for 20 ml of bath | 0.8 (≈ 1.86 µM) | – | – |
| C=CCC(Cc1csc2ccccc12)C(=O)OCCCN1CCCCCC1 (centres unmarked) [Compound 10] | 7.2 μg for 20 ml of bath | 0.65 (≈ 1.69 µM) | – | – |
| O=C(OCCN1CCOCC1)C(Cc1csc2ccccc12)c1ccccc1 (centres unmarked) [Compound 16] | 38.0 μg for 20 ml of bath | 5.5 (≈ 13.9 µM) | 22.5 (≈ 56.9 µM) | 225 μg/20 ml of bath |
| O=C(OCCN1CCCC1)C(Cc1csc2ccccc12)c1ccccc1 (centres unmarked) [Compound 14] | 18.0 μg for 20 ml of bath | 1.75 (≈ 4.61 µM) | 7 (≈ 18.4 µM) | 90 μg/20 ml of bath |
| O=C(OCCCN1CCCCCC1)C(Cc1ccccc1)Cc1csc2ccccc12 (centres unmarked) [Compound 33] | 4.0 μg for 20 ml of bath | 0.425 (≈ 0.976 µM) | – | – |
| CC(CN1CCCC1)OC(=O)C(Cc1cccs1)Cc1csc2ccccc12 (centres unmarked) [Compound 46] | 2.5 μg for 20 ml of bath | 0.5 (≈ 1.21 µM) | 0.9 (≈ 2.18 µM) | 6.5 μg/20 ml of bath |
| CCN(CC)CCOC(=O)C(Cc1cccs1)Cc1csc2ccccc12 (centres unmarked) [Compound 36] | 8.5 μg for 20 ml of bath | 1 (≈ 2.49 µM) | 1.4 (≈ 3.49 µM) | 14 μg/20 ml of bath |
| CCN(CC)CCOC(=O)C(Cc1csc2ccccc12)CC1CCCO1 (centres unmarked) [Compound 48] | 6.0 μg for 20 ml of bath | 1.25 (≈ 3.21 µM) | 0.9 (≈ 2.31 µM) | 10 μg/20 ml of bath |
| CN(C)CCCOC(=O)C(Cc1ccccc1)Cc1csc2ccccc12 (centres unmarked) [Compound 29] | 4.0 μg for 20 ml of bath | 0.425 (≈ 1.11 µM) | 5 (≈ 13.1 µM) | 45 μg/20 ml of bath |
| O=C(OCCCN1CCCCC1)C(Cc1cccs1)Cc1csc2ccccc12 (centres unmarked) [Compound 44] | 5.5 μg for 20 ml of bath | 0.4 (≈ 0.935 µM) | 3.5 (≈ 8.18 µM) | 30 μg/20 ml of bath |
| CCN(CC)CCOC(=O)C(Cc1csc2ccccc12)c1ccccc1 (stereo not drawn) [Compound 13, N,N-diethylamino ethyl ester of α-phenyl-β-[(benzo(b)thienyl-3]propionic acid and its oxalate] | 13.0 μg for 20 ml of bath | 2.25 | 2.1 | 30 μg/20 ml of bath |
| C=CCC(Cc1csc2ccccc12)C(=O)OCCN1CCCCC1 (centres unmarked) [Compound 3] | 18.0 μg for 20 ml of bath | 2 (≈ 5.59 µM) | – | – |
| CN(C)CCCOC(=O)C(Cc1cccs1)Cc1csc2ccccc12 (centres unmarked) [Compound 41] | 4.3 μg for 20 ml of bath | 0.525 (≈ 1.35 µM) | 2.3 (≈ 5.93 µM) | 24 μg/20 ml of bath |
| O=C(OCCN1CCCC1)C(Cc1ccccc1)Cc1csc2ccccc12 (centres unmarked) [Compound 26] | 5.5 μg for 20 ml of bath | 0.6 (≈ 1.52 µM) | 7 (≈ 17.8 µM) | 50 μg/20 ml of bath |
| O=C(OCCCN1CCCCC1)C(Cc1csc2ccccc12)c1ccccc1 (centres unmarked) [Compound 21] | 8.0 μg for 20 ml of bath | 0.95 (≈ 2.33 µM) | 4 (≈ 9.81 µM) | 40 μg/20 ml of bath |
| O=C(OCCCN1CCCCC1)C(Cc1ccccc1)Cc1csc2ccccc12 (centres unmarked) [Compound 32] | 4.5 μg for 20 ml of bath | 0.475 (≈ 1.13 µM) | – | – |
| C=CCC(Cc1csc2ccccc12)C(=O)OCCCN1CCCC1 (centres unmarked) [Compound 8] | 42.0 μg for 20 ml of bath | 4 (≈ 11.2 µM) | 4.5 (≈ 12.6 µM) | 55 μg/20 ml of bath |
| O=C(OCCN1CCCCC1)C(Cc1ccccc1)Cc1csc2ccccc12 (centres unmarked) [Compound 27] | 6.0 μg for 20 ml of bath | 0.6 (≈ 1.47 µM) | – | – |

| Compound | Spasmolytic activity Papaverinic type DE 30 (isolated rat duodenum) | EC50 (isolated rat duodenum) [µg/mL] | EC50 [1] [µg/mL] | Spasmolytic activity Atropinic type DE 30 [1] |
| --- | --- | --- | --- | --- |
| CN1C2CCC1CC(OC(=O)C(CO)c1ccccc1)C2 (centres unmarked) [atropine sulphate, reference compound] | – | – | ≤ 0.005 | – |
| CCN(CC)CCCOC(=O)C(Cc1csc2ccccc12)c1ccccc1 (centres unmarked) [Compound 19] | 11.5 μg for 20 ml of bath | 1.25 (≈ 3.16 µM) | – | – |
| C=CCC(Cc1csc2ccccc12)C(=O)OCCCN1CCCCC1 (centres unmarked) [Compound 9] | 13.0 μg for 20 ml of bath | 1 (≈ 2.69 µM) | – | – |
| CC(CN1CCCCC1)OC(=O)C(Cc1csc2ccccc12)c1ccccc1 (centres unmarked) [Compound 23] | 3.1 μg for 20 ml of bath | 0.35 (≈ 0.859 µM) | 7 (≈ 17.2 µM) | 50 μg/20 ml of bath |
| CCN(CC)CCCOC(=O)C(Cc1ccccc1)Cc1csc2ccccc12 (centres unmarked) [Compound 30] | 6.0 μg for 20 ml of bath | 0.65 (≈ 1.59 µM) | – | – |
| O=C(OCCCN1CCCCCC1)C(Cc1csc2ccccc12)c1ccccc1 (centres unmarked) [Compound 22] | 7.0 μg for 20 ml of bath | 0.8 (≈ 1.9 µM) | – | – |
| CC(CN1CCCC1)OC(=O)C(Cc1ccccc1)Cc1csc2ccccc12 (centres unmarked) [Compound 34] | 8.0 μg for 20 ml of bath | 0.8 (≈ 1.96 µM) | – | – |
| CN(C)CCOC(=O)C(Cc1csc2ccccc12)CC1CCCO1 (centres unmarked) [Compound 47] | 9.0 μg for 20 ml of bath | 0.75 (≈ 2.07 µM) | – | – |
| C=CCC(Cc1csc2ccccc12)C(=O)OCCN1CCCC1 (centres unmarked) [Compound 2] | 12.0 μg for 20 ml of bath | 1.15 (≈ 3.35 µM) | – | – |
| O=C(OCCCN1CCCCCC1)C(Cc1cccs1)Cc1csc2ccccc12 (centres unmarked) [Compound 45] | 14.0 μg for 20 ml of bath | 1.35 (≈ 3.06 µM) | – | – |
| O=C(OCCN1CCCCCC1)C(Cc1ccccc1)Cc1csc2ccccc12 (centres unmarked) [Compound 28] | 6.5 μg for 20 ml of bath | 0.7 (≈ 1.66 µM) | 250 (≈ 593 µM) | 750 μg/20 ml of bath |
| C=CCC(Cc1csc2ccccc12)C(=O)OCCN(CC)CC (centres unmarked) [Compound 1] | 3.7 μg for 20 ml of bath | 0.125 (≈ 0.362 µM) | – | – |
| CN(C)CCOC(=O)C(Cc1csc2ccccc12)c1ccccc1 (centres unmarked) [Compound 12] | 24.0 μg for 20 ml of bath | 2.5 (≈ 7.07 µM) | 5 (≈ 14.1 µM) | 50 μg/20 ml of bath |
| CN(C)CCCOC(=O)C(Cc1csc2ccccc12)CC1CCCO1 (centres unmarked) [Compound 52] | 8.0 μg for 20 ml of bath | 0.7 (≈ 1.86 µM) | – | – |
| CN(C)CCCOC(=O)C(Cc1csc2ccccc12)c1ccccc1 (centres unmarked) [Compound 18] | 8.0 μg for 20 ml of bath | 1 (≈ 2.72 µM) | 1.75 (≈ 4.76 µM) | 22 μg/20 ml of bath |
| O=C(OCCN1CCOCC1)C(Cc1cccs1)Cc1csc2ccccc12 (centres unmarked) [Compound 39] | 43.0 μg for 20 ml of bath | 4 (≈ 9.63 µM) | – | – |
| O=C(OCCCN1CCCC1)C(Cc1csc2ccccc12)c1ccccc1 (centres unmarked) [Compound 20] | 8.0 μg for 20 ml of bath | 0.95 (≈ 2.41 µM) | 2.75 (≈ 6.99 µM) | 25 μg/20 ml of bath |
| O=C(OCCN1CCCCC1)C(Cc1csc2ccccc12)c1ccccc1 (centres unmarked) [Compound 15] | 45.0 μg for 20 ml of bath | 3.5 (≈ 8.89 µM) | 2.25 (≈ 5.72 µM) | 26 μg/20 ml of bath |
| CCN(CC)CCOC(=O)C(Cc1ccccc1)Cc1csc2ccccc12 (centres unmarked) [Compound 25] | 9.0 μg for 20 ml of bath | 0.9 (≈ 2.28 µM) | 6 (≈ 15.2 µM) | 60 μg/20 ml of bath |
